Laboratory results: PubChem BioAssay (NCI)
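Values below derive from 48-hour exposures of cells grown in 96-well plates, with endpoints linearly interpolated between the two concentrations bracketing the appropriate inhibition level. GI50 = concentration required for 50% inhibition of growth. At the TGI there is no net growth.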

Key:
Experiment in all cases: NCI anticancer screen, dose series, 48 h
SR leukemia = test system: SR leukemia
HL-60(TB) leukemia = test system: HL-60(TB) leukemia
EKVX NSCLC = test system: EKVX NSCLC
SK-MEL-2 melanoma = test system: SK-MEL-2 melanoma
OVCAR-3 ovarian = test system: OVCAR-3 ovarian
M14 melanoma = test system: M14 melanoma
TK-10 renal = test system: TK-10 renal
OVCAR-5 ovarian = test system: OVCAR-5 ovarian
RXF 393 renal = test system: RXF 393 renal
PC-3 prostate = test system: PC-3 prostate

Row | SMILES | TGI (SR leukemia) | TGI (HL-60(TB) leukemia) | TGI (EKVX NSCLC) | TGI (SK-MEL-2 melanoma) | TGI (OVCAR-3 ovarian) | TGI (M14 melanoma) | TGI (TK-10 renal) | TGI (OVCAR-5 ovarian) | TGI (RXF 393 renal) | TGI (PC-3 prostate) | GI50 (SR leukemia) | GI50 (HL-60(TB) leukemia) | GI50 (EKVX NSCLC) | GI50 (SK-MEL-2 melanoma) | GI50 (OVCAR-3 ovarian) | GI50 (M14 melanoma) | GI50 (TK-10 renal) | GI50 (OVCAR-5 ovarian) | GI50 (RXF 393 renal) | GI50 (PC-3 prostate)
1 | Nc1ncnc2c1nnn2C1CCC(CP(=O)(O)O)C1 (centres undefined) | > 100 µM | > 100 µM | > 100 µM | > 100 µM | > 100 µM | > 100 µM | > 100 µM | > 100 µM | > 100 µM | > 100 µM |  |  |  |  |  |  |  |  |  | 
2 | CN(C)c1ccc2c(c1)OC(N)=C(C#N)C2c1ccc2c(c1)CCO2 (centres undefined) | > 48.2 µM | 0.491 µM | > 100 µM | 24.7 µM | 1.88 µM | 11.4 µM | > 100 µM | > 100 µM |  | > 100 µM | < 19.8 nM | 93.9 nM | 0.47 µM | 0.0962 µM | < 21.3 nM | 41.7 nM | 15.9 µM | 1.13 µM | 255 nM | 0.0664 µM
3 | CCc1ccc(NC(=O)COC(=O)c2cc([N+](=O)[O-])ccc2Sc2nnnn2C)cc1 | > 100 µM | 49.7 µM | > 100 µM | > 100 µM | 25.4 µM | 26 µM | > 100 µM | 76 µM | 62 µM | 84.5 µM | 4050 nM | 18800 nM | 29.5 µM | 23.3 µM | 11700 nM | 3160 nM | 46.4 µM | 17.2 µM | 24000 nM | 15.2 µM
4 | Nc1nc(Nc2ccc(C3CCC(N4CCOCC4)CC3)cc2)nn1-c1ccccn1 (centres undefined) | 3.29 µM | 9.96 µM | > 100 µM | > 61.8 µM | 44.6 µM | > 36.8 µM | > 100 µM | > 100 µM | 5.77 µM | > 100 µM | 366 nM | 2550 nM | 8.21 µM | 7.77 µM | 9860 nM | 4360 nM | > 21.5 µM | 4.17 µM | 2030 nM | 5.76 µM
5 | O=c1nc2oc3ccc4ccccc4c3cc-2s1 | > 100 µM | > 100 µM | > 100 µM | > 100 µM | > 23.7 µM | > 100 µM | > 100 µM | > 100 µM | 21.6 µM | > 100 µM | 458 nM | 1410 nM | 59.6 µM | 3.79 µM | 457 nM | 1090 nM | > 25.4 µM | > 100 µM | 1830 nM | 3.16 µM
6 | CCCCN(CCCC)c1ccc(C(=N)c2ccc(N(CCCC)CCCC)cc2)cc1 | 1.04 µM | 1.95 µM | 1.15 µM | 1.31 µM | 0.946 µM | 2.09 µM | 1.53 µM | 2.31 µM | 1.62 µM | 1.03 µM | 287 nM | 479 nM | 0.277 µM | 0.387 µM | 283 nM | 672 nM | 0.453 µM | 0.88 µM | 545 nM | 0.296 µM
